Laboratory results from PMC13083723 (Patterns, 2026).

System: Vero-E6 cells
Assay: cells
Format: cell-based
Details: for activation at 10 µM: Chlorocebus sabaeus, Vero C1008, 24 h, read-out: PL_Result

Compound | activation at 10 µM [%] | PL_Result
CS(=O)(=O)c1ccc(-c2cn3ccccc3n2)cc1 [SPE_K45125084] | -7.32 | –
CCCCCCCCCCC(=O)O[C@H]1CC[C@H]2[C@@H]3CCC4=CC(=O)CC[C@]4(C)[C@H]3CC[C@]12C [SPE_K70650177] | -4.09 | –
CC(=O)Nc1ccc(S(=O)(=O)Nc2ccc([N+](=O)[O-])cc2)cc1 [SPE_K76845197] | -3.76 | –
COc1cccc(-c2cc(=O)c3ccccc3o2)c1N [SPE_K62810658] | 2.96 | –
O=S(=O)(Cc1ccccc1)Nc1ccc(-c2ccc3c(cnn3-c3ccc(F)cc3)c2)c(C(F)(F)F)c1 [SPE_K29328421] | -4.77 | –
N#CC(c1ccccc1)(c1ccccc1)c1ccccc1Cl [SPE_K81341251] | 4.81 | –
CC(C)(C)C(=O)OCOC(=O)C1N2C(=O)CC2S(=O)(=O)C1(C)C (centres unmarked) [SPE_A63431791] | -1.74 | –
CCCCc1nc(C)c(CC(=S)N(C)C)c(=O)n1Cc1ccc(-c2ccccc2-c2nnn[nH]2)cc1 [SPE_K21586122] | -5.47 | –
COc1ccc(C(=O)/C(Cc2cc(OC)c(OC)c(OC)c2)=C(\C(=O)O)c2ccc3c(c2)OCO3)cc1 [SPE_K13826399] | 12.9 | –
O=C(C1CCCCC1)N1CC(=O)N2CCc3ccccc3C2C1 (centres unmarked) [SPE_A21858158] | -0.34 | –
CCOC(=O)n1ccn(C)c1=S [SPE_K87156652] | -10.8 | –
CCC(C)(C)C(=O)C(=O)N1CCC[C@H]1C(=O)OCCCc1cccnc1 [SPE_K44869961] | 2.45 | –
CC(C)C[C@H](NC(=O)[C@H](Cc1ccccc1)NC(=O)CNC(=O)[C@H](C)NC(=O)[C@@H](N)Cc1ccc(O)cc1)C(=O)O [SPE_K57927309] | – | -0.1658
O=C(N[C@H]1CN2CCC1CC2)c1ccc(Cl)cc1 [SPE_K28863208] | -0.0405 | –
C[C@@H]1CN(CCCn2c3ccccc3c3ccccc32)C[C@H](C)N1 [SPE_K70490179] | 109 | –
COc1ccc(Nc2ncnc3ccc(OC)cc23)cc1 [SPE_K87696786] | -2.62 | –
O=C(CC(c1ccccc1)c1ccccc1)N1CCN(C(c2ccccc2)c2ccccc2)CC1 [SPE_K16037980] | -13.7 | –
CC(=O)OCC(=O)[C@H]1CC[C@H]2[C@@H]3CC[C@H]4C[C@H](O)CC[C@]4(C)[C@H]3C(=O)C[C@]12C [SPE_K51751936] | -4.71 | –
N[C@H](CSC(c1ccccc1)(c1ccccc1)c1ccccc1)C(=O)O [SPE_K09774593] | -6.1 | –
COc1ccc(C2C(=O)c3ccccc3C2=O)cc1 [SPE_K47458712] | -11.2 | –
CNC1CCCN(c2c(F)cc3c(=O)c(C(=O)O)cn(C4CC4)c3c2OC)C1 (centres unmarked) [SPE_A47790386] | 3.04 | –
COc1cc(C(=S)N2CCOCC2)cc(OC)c1OC [SPE_K29570907] | -7.35 | –
C=C(C)CN1CC[C@]23c4c5ccc(O)c4O[C@H]2c2[nH]c4ccccc4c2C[C@@]3(O)C1C5 [SPE_A75769826] | 35 | –
CCCCNc1cc(C(=O)O)cc(S(N)(=O)=O)c1Oc1ccccc1 [SPE_K38197229] | -2.26 | –
O=C(O)c1ccc(-c2c[nH]c3ncc(-c4ccccc4)cc23)cc1C1CCCC1 [SPE_K14991967] | -4.54 | –
C[N+]1(C)CCc2cc3c(cc2[C@H]1[C@@H]1OC(=O)c2c1ccc1c2OCO1)OCO3 [SPE_A57798559] | -11.7 | –
COc1cc2ncnc(Nc3cccc(Cl)c3F)c2cc1OC(=O)N1CCN(C)C[C@H]1C [SPE_K41626799] | -12.8 | –

Compound | activation at 10 µM [%] | PL_Result
C[C@@H]1C[C@H]2[C@@H]3CCC4=CC(=O)C=C[C@]4(C)[C@@]3(F)[C@@H](O)C[C@]2(C)[C@@]1(O)C(=O)CO [SPE_A10188456] | -8.72 | –
CC#CC(=O)N1CCC[C@H]1c1nc(-c2ccc(C(=O)Nc3ccccn3)cc2)c2c(N)nccn12 [SPE_K64034691] | -12.3 | –
Cc1cc(OCc2nc(-c3ccccc3Cl)cs2)ccc1OCC(=O)O [SPE_K19409553] | 5.84 | –
COc1cc(Oc2ccnc3cc(OC)c(OC)cc23)ccc1NC(=O)NC(C)c1nccs1 (centres unmarked) [SPE_A88787317] | -0.267 | –
COc1ccc(OC)c(C2C(C#N)=C(N)Oc3[nH]nc(-c4ccc5ccccc5c4)c32)c1 (centres unmarked) [SPE_A67036568] | -6.11 | –
COc1nc(C)cnc1NS(=O)(=O)c1cccnc1-c1ccc(-c2nnco2)cc1 [SPE_K31553034] | -4.16 | –
CC(CN(C)C)C(C)(O)Cc1ccc(Cl)cc1 (centres unmarked) [SPE_A43809092] | -8.69 | –
Clc1ccc(C(Cn2ccnc2)OCc2ccsc2Cl)c(Cl)c1 (centres unmarked) [SPE_A33084557] | 4.51 | –
NC[C@H](CC(=O)O)c1ccc(Cl)cc1 [SPE_K62353271] | -10.2 | –
Cc1cc(OCc2nnc(SC3CCCC3)n2-c2cccnc2)ccc1-c1ccc(S(C)(=O)=O)cc1 [SPE_K26253904] | -0.282 | –
Nc1nnc2[nH]c3ccccc3nc1-2 [SPE_K87932577] | -2.99 | –
CC[C@@]1(O)C(=O)OCc2c1cc1n(c2=O)Cc2cc3c(CN(C)C)c(O)ccc3nc2-1 [SPE_K55696337] | -1.88 | –
CN(CCCN1c2ccccc2CCc2ccccc21)CC(=O)c1ccc(Cl)cc1 [SPE_K82147103] | -0.728 | –
COc1ccc(-n2c(C)c([N+](=O)[O-])c3ccc(O)cc32)cc1 [SPE_K39166528] | -10.4 | –
Cc1[nH]c2ccccc2c1CCNCc1ccc(/C=C/C(=O)NO)cc1 [SPE_K02130563] | -9.42 | –
CCN(c1ccccc1)c1cc(NC)[n+](C)c(C)n1 [SPE_K18678457] | -5.38 | –
COc1cccc([C@H](O)C2CCN(CCc3ccc(F)cc3)CC2)c1OC [SPE_K23647661] | -9.45 | –
CN1CC[C@@H](c2c(O)cc(O)c3c(=O)cc(-c4ccccc4Cl)oc23)[C@@H]1CO [SPE_K51791723] | 1.15 | –
Cc1nnc(C(=O)NC(C)(C)c2nc(C(=O)NCc3ccc(F)cc3)c(O)c(=O)n2C)o1 [SPE_K05658747] | -12.8 | –
CN1CCN(c2nc3ccccc3nc2Cl)CC1 [SPE_K11046126] | -4.46 | –
CN1CCN(c2ccc3nc(-c4ccc5nc(-c6ccc(O)cc6)[nH]c5c4)[nH]c3c2)CC1 [SPE_K17026858] | -8.8 | –
CCCN(CCC)C(=O)Cc1c(-c2ccc(Cl)cc2)nc2ccc(Cl)cn12 [SPE_K66896751] | -0.969 | –
CCN1CCC(n2cc(CNc3cc(Cl)c4ncc(C#N)c(Nc5ccc(F)c(Cl)c5)c4c3)nn2)CC1 [SPE_K49468759] | 33.2 | –
CC[N+](CC)(CC)CCOc1ccc(/C=C/c2ccccc2)cc1 [SPE_K03128577] | 8.41 | –
CNC[C@H](O)c1cccc(O)c1 [SPE_K73381542] | 3.82 | –
CC(=O)Nc1cccc(-n2c(=O)n(C3CC3)c(=O)c3c(Nc4ccc(I)cc4F)n(C)c(=O)c(C)c32)c1 [SPE_K12343256] | -1.89 | –
O=C(O)c1cc(-c2ccc(F)cc2F)ccc1O [SPE_K22031190] | -7.97 | –

Compound | activation at 10 µM [%] | PL_Result
C[C@H](CCC(=O)NCCS(=O)(=O)O)[C@H]1CC[C@H]2[C@@H]3[C@@H](O)C[C@@H]4C[C@H](O)CC[C@]4(C)[C@H]3CC[C@]12C [SPE_K45245728] | -11.6 | –
C[C@H]1CO[C@@H]2Cn3cc(C(=O)NCc4ccc(F)cc4F)c(=O)c(O)c3C(=O)N12 [SPE_A95114378] | -1.46 | –
COc1ccc2c(c1)nc([S+]([O-])Cc1ncc(C)c(OC)c1C)[n]2[Mg][n]1c([S+]([O-])Cc2ncc(C)c(OC)c2C)nc2cc(OC)ccc21 (centres unmarked) [SPE_A56892734] | -9.5 | –
Nc1nc(=O)[nH]cc1F [SPE_K82143716] | -8.79 | –
O=C(/C=C/c1ccccc1)NCCO [SPE_K76021681] | 2.18 | –
COc1cc(C=O)c([N+](=O)[O-])cc1OC [SPE_K03564313] | 2.17 | –
COc1ccccc1C(=O)Nc1cccc(NC(=O)c2cccc(C)c2)c1 [SPE_K02160913] | -4.26 | –
O=C(O)c1cn(-c2ccc(F)cc2)c2cc(N3CCNCC3)c(F)cc2c1=O [SPE_K08525451] | -3.13 | –
N#Cc1ccc(NCCNCC(=O)N2CCC[C@H]2C#N)nc1 [SPE_K77396579] | -14.3 | –
CC(C(=O)O)c1cccc(Oc2ccccc2)c1 (centres unmarked) [SPE_A81129465] | 5.17 | –
O=C(NC(Cc1c[nH]c2ccccc12)C(=O)O)c1ccc(Cl)cc1 (centres unmarked) [SPE_A87983072] | -4.45 | –
CC(C)(C)NCC(O)COc1cccc2c1CCC(=O)N2 (centres unmarked) [SPE_A42167015] | 2.81 | –
COc1cc2c(cc1OC)C(c1ccc(N)cc1)=NNC(=O)C2 [SPE_K42859542] | 0.928 | –
CC(CCCCC(=O)Nc1ccc(C(F)(F)F)cc1)NCCc1c[nH]cn1 (centres unmarked) [SPE_A66435872] | 38.2 | –
O=C(NCCCN1CCOCC1)c1ccc(Cl)cc1 [SPE_K17979676] | -11.4 | –
O=C(O)c1cc(O)c2ccccc2n1 [SPE_K85872723] | -13 | –
Cc1cc(OCC(=O)O)cc(C)c1Cc1ccc(O)c(C(C)C)c1 [SPE_K85406984] | -18.6 | –
CC(C)n1cnc2c(C(=O)N[C@H]3CN4CCC3CC4)cc(Cl)cc21 [SPE_K80725821] | 0.494 | –
C=CC(=O)Nc1cc(Nc2nccc(-c3c[nH]c4ccccc34)n2)c(OC)cc1N(C)CCN(C)C [SPE_K81958169] | 5.71 | –
Cc1c(N)cccc1Cn1ccc(OCCc2cccs2)cc1=O [SPE_K48888725] | 1.09 | –
NC1CCN(c2c(F)cc3c(=O)c(C(=O)O)cn(C4CC4)c3c2Cl)C1 (centres unmarked) [SPE_A93964801] | -2.8 | –
O[C@H]1[C@H](O)[C@@H](O)CN2CC[C@H](O)[C@H]12 [SPE_K20897876] | 7.21 | –
NC[C@H]1O[C@H](O[C@H]2C(O[C@@H]3O[C@H](CO)[C@@H](O)[C@H]3O)[C@@H](O)[C@H](N)C[C@@H]2N)[C@H](N)[C@@H](O)[C@@H]1O (some centres unmarked) [SPE_A03826781] | -7.3 | –
CCN1C[C@H](C)n2c(c(O)c3c(=O)n(Cc4ccc(F)c(Cl)c4)nc(C(=O)NC)c32)C1=O [SPE_K03128512] | 7.85 | –
CN(C)CCOC(c1ccc(Cl)cc1)c1ccccn1 (centres unmarked) [SPE_A29426959] | -7.35 | –
COc1cc2ncnc(Nc3ccc(Oc4ccccc4)cc3)c2cc1OC [SPE_K50495309] | -8.17 | –
